# Measurements as given in patent publication US20200268864A1, “CANCER VACCINE COMPOSITIONS AND METHODS FOR USING SAME TO TREAT CANCER” (Dana-Farber Cancer Institute, Inc., priority 2017, published 2020).
# What was measured:
# [1] = tested on: STING pathway in BMDCs co-cultured with PPM cells; assay: Co-culture of BMDCs with olaparib-treated PPM tumor cells; assay type: cell-based, mouse
# Description: Blood was obtained by retro-orbital sampling at intermediate time points or experimental end points. Blood cells and plasma/sera were separated by centrifugation at 1,500×g for 5 min. at 4° C. Plasmaisera were sent out to Eve Technologies for cytokine array analysis (Chemokine Array 31-Plex and Mouse Procarta IFN 2-plex Featured Assay). Plasma/sera were applied to ELISA according to manufacturer's instructions. For in vitro experiments, cell culture supernatants were obtained by centrifugation at 1,500×g for 5 min. at 4° C. to remove all debris and cells, and were then subjected to ELISA analysis. IFN-β was detected using the LEGEND MAX™ Mouse IFN-β ELISA Kit (BioLegend).
# Bone marrow cells were isolated from FVB/NJ mice and cultured in RPMI-1640 containing 10% FBS and 20 ng/ml GM-CSF. BMDCs (bone marrow derived dendritic cells) were harvested for in vitro co-culture assay on day 7 to day 10. About 3×10^5 PBM or PPM tumor cells were cultured in a 6-well plate for 24 hr. and then treated with DMSO or olaparib. After 24 hr incubation with DMSO, olaparib, or olaparib in combination with other drugs (cell cycle inhibitor or apoptosis inhibitor), drugs were removed and tumor cells were washed twice with PBS. BMDCs were added and co-cultured with PBM or PPM cells at a ratio of 1:1 in 1.5 ml culture media in the presence of GM-CSF (20 ng/ml) and lipofectamine (2 μl) for 24 hr. […]
# PBM tumor-bearing mice = assay: Flow cytometry of peripheral blood and splenic immune cells; details: mouse, in vivo
# Description: Tumors were first mechanically disrupted by chopping, then chemically digested in collagenase buffer (8 mL DMEM, 0.1 mL 1M HEPES, 0.5 mL FBS, 0.2 mL Pen/Strep, 1 m, 10× collagenase/hyaluronidase (Stemcell Technologies), 0.2 mL of 1 mg/mL DNase I (Stemcell Technologies) at 37° C. for 45 min. Single-cell suspensions of spleen and lymph nodes were obtained by mashed through a 70 um strainer using the plunger of a 3 mL or 5 mL syringe. Single cells suspensions were treated with red blood lysis buffer (4 mL NH4Cl+1 mL PBS with 2% calf serum) and washed with FACS buffer. Single cells suspensions were incubated with LIVE/DEAD Fixable Aqua Dead Cell Stain (Life Technologies, Cat # L34965) for 30 min and then blocked with anti-CD16/32 (BioLegend, clone 93) for 20 min on ice. Samples were then incubated with appropriate antibodies for 30 min. on ice. The Foxp3 staining buffer set (eBioscience, Cat #00-5523-00) was applied for intracellular markers staining. For the intracellular cytokine analysis, cells were stimulated with Leukocyte Activation Cocktail (BD Biosciences, Cat #550583) at 37° C. for 5 hours prior to FACS staining. The following antibodies were used in the experiments and were purchased from BioLegend unless otherwise indicated: CD45 (clone 30-F11), TCRβ (clone H57-597), CD4 (clone RM4-5), CD8 (clone 53-6.7), CD44 (clone IM7), CD62L (MEL-14), CD25 (PC61), IFNγ (clone XMG1.2), TNFα(clone MP6-XT22), PD-1 (clone 29F.1A12), Tim-3 (clone RMT3-23), LAG-3 (clone C9B7W), CD11b (clone M1/70), CD11c (clone […]), F4/80 (clone BM8), Gr-1 (clone RB6-BC5), Ly-6C (clone HK1.4), Ly-6G (clone 1A8), MHCII (clone M5/114.15.2), CD80 (clone 16-10A1), CD86 (clone GL-1), MHC1 (clone KH114). FoxP3 (clone FJK-16 s; eBioscience), Phospho-IRF-3 (Ser396) (clone D6O1M, Cell signaling technology), Phospho-TBK1/NAK (Ser172) (clone D52C2, Cell signaling technology), and LIVE/DEAD® Fixable Aqua Dead Cell Stain Kit (Life Technologies Cat L34965). Flow cytometry was performed on an LSR II (BD Biosciences) or LSRFortessa™ HTS (BD Biosciences) at the DFCI flow cytometry core facility, and all the data were analyzed using FlowJo software.
# [2] = tested on: PP tumors (Pten−/−; Trp53−/−); assay: PP tumor growth after intratumoral injection of PBM or PP cells plus olaparib; assay type: in vivo, mouse; details: 10^6 cells IT on day 1, 5, 9; olaparib 50 mg/kg/day IP from day 1
# Description: All animal experiments described in this study were performed according to the animal protocols approved by the DFCI Institutional Animal Care and Use Committee. Pten^−/−; Trp53^−/− (termed PP) mammary epithelial tumor cells were derived from syngeneic FVB/N genetically engineered mouse model of breast tumors driven by concurrent loss of PTEN and P53 (K14-Cre/Pten^L/L, Trp53^L/L). 10^6 PP cells in 100 μl of 40% Matrigel® Matrix (Corning) in DMEM were injected into the mammary fat pad of FVB/N1 mice. When tumors were about 100-200 mm^3 in volume, three injections of 10^6 of Trp53^−/−; Brca1^−/−; c-Myc (termed PBM) ovarian surface epithelial tumor cells or PP cells were administered intraturnorally (IT) on day 1, 5, and 9, respectively. Mice were also administered 50 mg/kg/day of olaparib (AZD2281) in 10% DMSO via intraperitoneal injection (IP) from day 1. Olaparib was prepared by diluting 100 mg/ml stocks in DMSO with 10% of 2-hydroxyl-propyl-β-cyclodextrine (Sigma) in PBS. In another cohort of PP tumor, two doses of DMXAA (Sigma, 500 μg/dose) resuspended in 7.5% of NaHCO3 or vehicle control were injected IT over a one-week period. Tumor volume was calculated using the formula: V=0.52×length×width×width.
structure (smiles),measurement,setting,value
"O=C(c1cc(Cc2n[nH]c(=O)c3ccccc23)ccc1F)N1CCN(C(=O)C2CC2)CC1 [olaparib, Olaparib]",STING-dependent activation of BMDCs (IFNβ and CXCL10 expression),[1],not observed
same,IFN gamma and TNF alpha production by peripheral blood CD8+ T cells,PBM tumor-bearing mice,enhanced
same,"expression of PD-1, Tim3, and Lag3 co-inhibitory receptors on splenic CD8+ T cells",PBM tumor-bearing mice,reduced
same,gMDSC and mMDSC in the peripheral blood,PBM tumor-bearing mice,decreased
same,number of CD8+ T cells in the spleens,PBM tumor-bearing mice,significantly increased
same,number of MDSCs in the spleens,PBM tumor-bearing mice,significantly reduced
same,PP tumor growth,[2],suppressed the growth of PP tumors
